According to paper PMC13598332, “Selective activation of tetrodotoxin-sensitive sodium channels by AaH-II drives arrhythmogenic late Na^+ current in the heart” (Europace, 2026):

How the values were obtained:
[1] = biological target: hNav1.5 (Homo sapiens, UniProt Q14524); assay: Manual patch-clamp on HEK293-Nav1.5; assay type: cell-based; details: 10 nM; HP −120 mV, 1000-ms step to −20 mV, RT
Experimental: Whole-cell Nav currents were recorded at RT from HEK293 stably expressing hNav1.5, using an Axopatch 200A amplifier (Axon Instruments, Molecular Devices). Voltage-clamp protocols were applied using the pClamp 10.4 software suite (Axon Instruments), interfaced with the electrophysiological setup through a Digidata 1440A digitizer (Axon Instruments). Patch-clamp pipettes were fabricated from borosilicate glass capillaries (outer diameter: 1.5 mm; inner diameter: 0.86 mm; Sutter Instrument) using a P-97 micropipette puller (Sutter Instrument), yielding a pipette resistance of 0.8–1.5 MΩ when filled with the internal solution. The internal solution contained (in mM) 10 CsCl, 110 CsF, 10 NaCl, 10 EGTA, and 10 HEPES (pH 7.2, osmolarity 280 mOsm). The external solution contained (in mM) 100 NaCl, 4 KCl, 40 NMDG, 2 CaCl2, 1 MgCl2, 5 glucose, and 10 HEPES (pH 7.4, osmolarity 298 mOsm). All chemicals were purchased from Sigma-Aldrich. After 80% series resistance compensation, 1000-ms depolarizing steps to −20 mV were applied from a HP of −120 mV to record sodium current under control conditions, following application of 10 nM AaH-II*. Sweeps were delivered every 5 s. Current signals were filtered at 10 kHz before digitization at 50 kHz and storage. […] Data were compiled and analysed using ClampFit 11.2 (Axon Instruments), Microsoft Excel, and GraphPad Software Prism.

[2] = biological target: hNav1.3 (Homo sapiens, UniProt Q9NY46); assay type: cell-based
[3] = biological target: hNav1.7 (Homo sapiens, UniProt Q15858); assay type: cell-based
[4] = biological target: hNav1.2 (Homo sapiens, UniProt Q99250); assay type: cell-based
[5] = tested on: human iPS-derived cardiomyocytes; assay: Automated patch-clamp of Na+ current in human iPS-derived cardiomyocytes; assay type: cell-based
Experimental: The control hiPSC cell line (ITXi002-A; IRX5-Wt[16]; RRID:CVCL_B5QD) was generated from primary dermal fibroblasts and previously characterized.[17–19] hiPSCs were maintained at 37°C, 5% CO2, 21% O2 in StemMacs PSC-Brew XF human medium (Miltenyi Biotec, #130-127-865) on culture plates coated with 0.05 mg/mL Matrigel hESC-Qualified Matrix (Corning, #354277) in DMEM F12 (Gibco, #11320033). At 75% confluency, the cells were passaged using the Gentle Cell Dissociation Reagent (StemCell Technologies, #07174).
We generated right ventricular-like cardioids on 96-well low-attachment plates using the Schmidt et al. (2023) protocol.[20] At D15.5, cardioids were pooled, dissociated, and replated as a monolayer in MW12 plates (Falcon, #353047) coated with Matrigel (Corning, #354277) for automated patch-clamp, and as single cells in 35-mm Petri dishes (NUNC #055055) coated with Matrigel for manual patch-clamp. Immediately before patch-clamp recording, cardiomyocytes were single-cell dissociated using Accutase (Sigma, #A6964).
For human iPSC-derived cardiomyocytes recordings, cells were resuspended at 300 000 cells/mL in a solution composed of 50% culture media and 50% extracellular buffer containing (in mM) 140 NaCl, 4 KCl, 2 CaCl2, 1 MgCl2, 5 glucose, and 10 HEPES (pH 7.4, osmolarity 298 mOsm) supplemented with 5 µM nifedipine. Single-hole, low-resistance chips (3–5 MΩ) were used. The intracellular solution contained (in mM) 10 KCl, 110 KF, 10 NaCl, 1 MgCl2, 1 CaCl2, 10 Ethylene Glycol Tetra-acetic Acid (EGTA), and 10 HEPES (pH 7.2, osmolarity 280 mOsm). Currents were recorded and analysed as previously described for stable cell lines.

[6] = tested on: isolated rat heart; assay: Ex vivo cardiac electrophysiological recordings (Langendorff, MEA); details: for increase in repolarization area of ventricular local field potential: mean ± SEM
Experimental: Eleven-week-old Wistar-Han rats were first heparinized (heparin sodium, 0.5 U/g i.p.) and then euthanized by i.p. injection of 140 mg/kg pentobarbital (Euthasol®). Hearts were quickly excised and immersed in a cold modified Krebs-Henseleit solution (in mM): 116 NaCl, 5 KCl, 1.1 MgSO4, 7 H2O, 0.35 NaH2PO4, 27 NaHCO3, 10 glucose, and pH 7.4. The aorta was cannulated, and the hearts were perfused on a Langendorff system with warm (36.5–37.5°C) and oxygenated (95% O2/5% CO2) Krebs-Henseleit solution supplemented with 1.8 mM CaCl2, 1 mM lactate, and 0.2 mM pyruvate (control solution) at a constant flow rate of 12 mL/min. Once connected to the Langendorff perfusion system, hearts were perfused with control solution for 10 min to stabilize their activities. Electrical activity of the upper part of the right ventricle was assessed using a 64-electrode array (0.2-mm electrode diameter; 0.36-mm interelectrode distance) connected to an EMS64-USB-1002 amplifier. Single-lead ECG was acquired to monitor global cardiac electrical activity. Data were sampled at 10 kHz per channel and acquired by EMapRecord5 (Mappinglab, Oxford, UK). Data were obtained at baseline (2 min before compound perfusion) and during AaH-II* perfusion for 10 min at various concentrations. Data were analysed using EMapScope5 (Mappinglab, Oxford, UK). Activation times were determined as the point of maximal negative slope. All activation times were related to the timing of the first detected waveform and then used to draw activation maps. An average of three complexes was used for activation time and conduction velocity analyses, while interbeat interval was measured as the average of 10 consecutive intervals. The index of inhomogeneity was calculated as previously described.[23] Arrhythmias were quantified over a period of 2 min in control and after peptide perfusion.

[7] = in vivo; details: Wistar-Han, rat, iv
[8] = representative traces, test 0 mV

Chain of hNav1.2 (Q99250 whole entry): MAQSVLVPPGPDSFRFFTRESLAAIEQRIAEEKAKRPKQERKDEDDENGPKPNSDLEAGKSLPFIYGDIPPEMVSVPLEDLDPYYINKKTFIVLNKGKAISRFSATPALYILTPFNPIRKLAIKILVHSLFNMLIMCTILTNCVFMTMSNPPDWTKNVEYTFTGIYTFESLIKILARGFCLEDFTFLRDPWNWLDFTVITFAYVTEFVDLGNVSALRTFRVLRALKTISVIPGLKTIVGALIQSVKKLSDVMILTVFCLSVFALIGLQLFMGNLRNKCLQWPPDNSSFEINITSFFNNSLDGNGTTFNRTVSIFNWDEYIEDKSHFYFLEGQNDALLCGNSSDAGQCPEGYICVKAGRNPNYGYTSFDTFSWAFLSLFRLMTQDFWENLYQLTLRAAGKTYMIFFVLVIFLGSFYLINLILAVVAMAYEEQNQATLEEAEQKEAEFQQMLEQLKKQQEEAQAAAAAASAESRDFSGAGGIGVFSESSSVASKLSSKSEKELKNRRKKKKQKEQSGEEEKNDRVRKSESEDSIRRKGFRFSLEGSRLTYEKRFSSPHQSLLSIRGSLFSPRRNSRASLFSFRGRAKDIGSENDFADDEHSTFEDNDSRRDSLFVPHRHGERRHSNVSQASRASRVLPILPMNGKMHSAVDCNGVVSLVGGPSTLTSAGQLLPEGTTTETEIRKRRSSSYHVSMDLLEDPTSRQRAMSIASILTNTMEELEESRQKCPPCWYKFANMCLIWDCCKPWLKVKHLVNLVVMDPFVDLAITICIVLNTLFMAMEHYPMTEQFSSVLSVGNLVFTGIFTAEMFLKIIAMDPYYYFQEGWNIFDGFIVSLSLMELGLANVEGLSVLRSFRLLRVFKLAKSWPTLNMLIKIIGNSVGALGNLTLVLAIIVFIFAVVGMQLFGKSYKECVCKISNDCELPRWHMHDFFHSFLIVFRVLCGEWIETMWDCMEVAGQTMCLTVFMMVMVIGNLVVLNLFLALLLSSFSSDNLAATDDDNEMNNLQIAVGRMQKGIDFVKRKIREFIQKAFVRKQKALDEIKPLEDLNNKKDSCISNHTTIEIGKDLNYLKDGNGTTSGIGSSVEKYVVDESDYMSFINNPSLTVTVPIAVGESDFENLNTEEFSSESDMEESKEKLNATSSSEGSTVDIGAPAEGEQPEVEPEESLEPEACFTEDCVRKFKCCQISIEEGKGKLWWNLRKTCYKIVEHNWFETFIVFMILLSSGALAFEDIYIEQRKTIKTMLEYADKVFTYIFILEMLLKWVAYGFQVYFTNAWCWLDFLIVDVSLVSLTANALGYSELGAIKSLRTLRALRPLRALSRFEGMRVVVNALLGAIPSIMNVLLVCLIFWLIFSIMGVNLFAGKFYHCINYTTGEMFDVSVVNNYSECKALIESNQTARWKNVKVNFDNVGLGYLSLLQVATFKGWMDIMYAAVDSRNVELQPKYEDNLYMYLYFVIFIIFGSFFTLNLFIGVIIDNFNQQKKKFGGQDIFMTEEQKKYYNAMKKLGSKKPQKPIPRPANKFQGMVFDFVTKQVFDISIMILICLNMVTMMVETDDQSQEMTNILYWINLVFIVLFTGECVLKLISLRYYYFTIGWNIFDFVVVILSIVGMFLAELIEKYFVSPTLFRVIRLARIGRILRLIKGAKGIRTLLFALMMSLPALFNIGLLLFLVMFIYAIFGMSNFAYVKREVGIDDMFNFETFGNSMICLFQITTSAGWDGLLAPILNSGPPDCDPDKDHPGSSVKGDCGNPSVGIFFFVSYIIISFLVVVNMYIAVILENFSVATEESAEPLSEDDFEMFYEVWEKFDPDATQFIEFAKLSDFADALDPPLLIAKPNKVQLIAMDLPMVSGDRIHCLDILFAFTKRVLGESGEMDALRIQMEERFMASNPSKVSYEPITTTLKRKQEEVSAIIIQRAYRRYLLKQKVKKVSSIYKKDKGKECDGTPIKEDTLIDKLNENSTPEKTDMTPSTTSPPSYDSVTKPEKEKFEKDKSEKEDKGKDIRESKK
Chain of hNav1.3 (Q9NY46 other isoform, or with tags, fused parts or gaps): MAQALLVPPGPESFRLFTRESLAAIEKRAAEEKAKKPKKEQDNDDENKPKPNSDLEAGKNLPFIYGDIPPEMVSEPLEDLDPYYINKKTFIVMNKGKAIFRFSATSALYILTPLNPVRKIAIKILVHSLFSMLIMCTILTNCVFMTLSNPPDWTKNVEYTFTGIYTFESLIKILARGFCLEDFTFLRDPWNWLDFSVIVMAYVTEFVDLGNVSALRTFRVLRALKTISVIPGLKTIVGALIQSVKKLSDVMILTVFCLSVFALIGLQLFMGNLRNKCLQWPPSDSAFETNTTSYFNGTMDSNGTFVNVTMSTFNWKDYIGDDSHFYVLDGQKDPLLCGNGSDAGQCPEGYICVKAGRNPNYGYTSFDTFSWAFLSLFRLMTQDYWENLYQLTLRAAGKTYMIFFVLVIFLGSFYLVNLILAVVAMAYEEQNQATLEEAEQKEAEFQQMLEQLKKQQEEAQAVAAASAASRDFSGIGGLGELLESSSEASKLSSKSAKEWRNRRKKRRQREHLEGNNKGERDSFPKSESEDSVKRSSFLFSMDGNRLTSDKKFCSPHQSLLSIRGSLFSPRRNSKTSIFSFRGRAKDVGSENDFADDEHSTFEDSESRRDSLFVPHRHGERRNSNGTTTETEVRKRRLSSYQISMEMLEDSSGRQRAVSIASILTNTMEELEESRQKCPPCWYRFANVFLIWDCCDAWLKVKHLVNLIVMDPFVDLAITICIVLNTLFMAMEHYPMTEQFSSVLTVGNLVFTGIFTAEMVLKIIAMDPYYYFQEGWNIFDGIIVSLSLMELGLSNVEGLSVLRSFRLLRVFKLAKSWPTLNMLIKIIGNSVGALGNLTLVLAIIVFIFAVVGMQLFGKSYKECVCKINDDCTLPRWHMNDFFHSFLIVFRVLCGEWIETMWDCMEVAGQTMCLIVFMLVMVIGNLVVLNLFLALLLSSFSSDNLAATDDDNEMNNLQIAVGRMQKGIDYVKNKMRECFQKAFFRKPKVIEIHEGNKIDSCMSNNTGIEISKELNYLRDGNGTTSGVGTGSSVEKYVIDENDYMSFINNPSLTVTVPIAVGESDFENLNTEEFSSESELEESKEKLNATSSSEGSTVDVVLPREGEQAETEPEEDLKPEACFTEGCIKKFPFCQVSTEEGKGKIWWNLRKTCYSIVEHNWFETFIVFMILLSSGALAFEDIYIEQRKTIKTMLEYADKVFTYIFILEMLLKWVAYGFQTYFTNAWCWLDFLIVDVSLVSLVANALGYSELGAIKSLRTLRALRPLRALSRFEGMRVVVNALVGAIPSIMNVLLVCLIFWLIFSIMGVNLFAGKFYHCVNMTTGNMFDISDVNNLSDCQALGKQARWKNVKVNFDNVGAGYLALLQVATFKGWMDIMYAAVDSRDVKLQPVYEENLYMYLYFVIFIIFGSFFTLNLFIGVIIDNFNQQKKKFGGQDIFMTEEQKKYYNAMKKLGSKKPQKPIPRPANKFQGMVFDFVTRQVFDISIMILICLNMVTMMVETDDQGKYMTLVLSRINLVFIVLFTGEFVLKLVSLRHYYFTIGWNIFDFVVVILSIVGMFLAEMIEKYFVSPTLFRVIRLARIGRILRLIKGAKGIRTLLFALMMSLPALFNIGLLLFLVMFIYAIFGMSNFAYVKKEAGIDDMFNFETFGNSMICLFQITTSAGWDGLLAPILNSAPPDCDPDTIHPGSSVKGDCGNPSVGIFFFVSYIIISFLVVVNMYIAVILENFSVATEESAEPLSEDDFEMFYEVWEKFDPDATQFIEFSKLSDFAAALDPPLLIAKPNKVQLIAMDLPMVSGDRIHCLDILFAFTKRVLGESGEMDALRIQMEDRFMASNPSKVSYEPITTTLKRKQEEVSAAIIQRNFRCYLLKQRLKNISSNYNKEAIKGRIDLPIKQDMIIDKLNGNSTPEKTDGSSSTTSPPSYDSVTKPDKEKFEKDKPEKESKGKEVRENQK

## CC[C@H](C)[C@H](NC(=O)[C@H](Cc1ccc(O)cc1)NC(=O)CNC(=O)[C@H](CC(=O)O)NC(=O)[C@H](CCCCN)NC(=O)[C@@H](N)C(C)C)C(=O)N[C@H](C(=O)N[C@@H](CC(=O)O)C(=O)N[C@@H](CC(=O)O)C(=O)N[C@H](C(=O)N[C@@H](CC(N)=O)C(=O)N[C@H]1CSSC[C@@H](C(=O)N[C@@H](Cc2c[nH]cn2)C(N)=O)NC(=O)[C@H](CCCCN)NC(=O)CNC(=O)[C@@H]2CCCN2C(=O)CNC(=O)[C@H](CCCCN)NC(=O)[C@H]([C@@H](C)O)NC(=O)[C@H](CCCNC(=N)N)NC(=O)[C@H](C(C)C)NC(=O)[C@H](Cc2c[nH]cn2)NC(=O)[C@H](CC(=O)O)NC(=O)[C@@H]2CCCN2C(=O)[C@H](CC(C)C)NC(=O)[C@H](CCCCN)NC(=O)[C@H](Cc2ccc(O)cc2)NC(=O)[C@@H]2CSSC[C@@H]3NC(=O)[C@H](CCC(=O)O)NC(=O)[C@H](CCC(=O)O)NC(=O)[C@H](CC(N)=O)NC(=O)[C@@H]4CSSC[C@H](NC(=O)[C@H](C)NC(=O)[C@H](CC(N)=O)NC(=O)CNC(=O)[C@H](Cc5ccc(O)cc5)NC(=O)[C@@H]5CCCN5C(=O)[C@H](CO)NC(=O)[C@H](C)NC(=O)[C@H](Cc5c[nH]c6ccccc56)NC(=O)[C@H](CCC(N)=O)NC(=O)[C@H](CSSC[C@H](NC(=O)[C@H](Cc5ccccc5)NC(=O)[C@H](Cc5ccc(O)cc5)NC(=O)[C@H]([C@@H](C)O)NC1=O)C(=O)NCC(=O)N[C@@H](CCCNC(=N)N)C(=O)N[C@@H](CC(N)=O)C(=O)N[C@@H](C)C(=O)N[C@@H](Cc1ccc(O)cc1)C(=O)N4)NC(=O)[C@H](Cc1ccc(O)cc1)NC(=O)CNC(=O)[C@H](CO)NC(=O)[C@H](CCC(=O)O)NC(=O)CNC(=O)[C@H](CCCCN)NC(=O)[C@H](CC(C)C)NC(=O)[C@H](CCCCN)NC(=O)[C@H]([C@@H](C)O)NC3=O)C(=O)N[C@@H](Cc1ccc(O)cc1)C(=O)N2)C(C)C)C(C)C [AaH-II*]
[1]
  effect on peak current amplitude or INaL measured at 1 sec depolarization: absence of effect
[2]; 10 nM
  INaL after 1 s depolarization: maintained INaL after 1 s pulse
  shift in voltage-dependence of activation: large AaH-II*-triggered hyperpolarizing shift in voltage-dependence of activation
[2]; [8]
  concentration at which INaL is triggered / becomes noticeable: 0.1 nM
[3]; 10 nM
  INaL after 1 s depolarization: lacked sufficient INaL at 1 s depolarization
  shift in voltage-dependence of activation: AaH-II*-mediated shift in voltage-dependence of activation
[3]; [8]
  concentration at which INaL is triggered / becomes noticeable: 1 nM
[4]; above 1 nM
  hNav1.2 peak current inhibition: not observed
[4]; hNav1.2, 10 nM
  INaL after 1 s depolarization: significant INaL current at 1 s depolarization
  shift in voltage-dependence of activation: lacked a significant shift in voltage-dependence of activation
[4]; hNav1.2, representative traces, test 0 mV
  concentration at which INaL is triggered / becomes noticeable: 0.1 nM
[5]; 0.1 nM AaH-II*
  INaL in human iPS-derived cardiomyocytes: triggered a characteristic INaL
[5]; 10 nM AaH-II*
  INaL in human iPS-derived cardiomyocytes: a greater INaL could be recorded
[6]; 0.1 nM
  increase in repolarization area of ventricular local field potential: 40.3 ± 8.0%
[6]; 1 nM AaH-II*
  arrhythmogenic hearts (hearts with arrhythmias / hearts): 5/7
[6]; 1 nM
  increase in repolarization area of ventricular local field potential: 140.6 ± 43.0%
[6]; 10 nM
  activation time: significantly increases activation time
[6]; 10 nM AaH-II*
  arrhythmogenic hearts (hearts with arrhythmias / hearts): 6/7
[6]; 10 nM, MEA on right ventricle, 10 min perfusion
  ventricular bradycardia (rhythm reduction): 1.9 fold
[6]; 0.1 and 1 nM
  cardiac conduction in the right ventricle: do not affect conduction
[6]; 0.1 and 1 nM, MEA on right ventricle, 10 min perfusion
  ventricular interbeat interval: no effect on the interbeat interval
[7]; 3 ug/kg
  level at time molar: < 0.1 nM
[7]; 15 ug/kg
  level at time molar: 2.4 ± 0.4 nM
[7]; 30 ug/kg
  level at time molar: 4.3 ± 0.6 nM
